Data taken from patent publication US20080194522A1, “Development of Fluorogenic Substrates For Monoamine Oxidases (Mao-A and Mao-B)” (priority 2004, published 2008).
Entries after “also recorded” stand apart in the source; their conditions may differ. Marks after values point to notes of the source that are not given here.

Columns and labels:
[1] = Photophysical characterization (absorbance, extinction coefficient, emission, quantum yield); format: physicochemical; details: for ΦH2O: H2O; for fluorescence, in words: aqueous / phosphate buffer; for ΦEtOH: EtOH
Description: Extinction coefficients were the average of three independent determinations of three different readings from the lowest energy transition at three concentrations. Quantum yields are the average of three determinations of both quantum yield standard 9,10-diphenylanthracene and the synthesized coumarines at 340 nm unless otherwise indicated.
All spectra were recorded in 100 mM sodium phosphate (pH 7.4) unless otherwise indicated. Recorded λmax is that of the longest wavelength transition. Extinction coefficients were reported as the average of at least three independent preparations of the probes. Fluorescence measurements were taken on a Jobin Yvon Fluorolog fluorescence spectrofluorometer (slits 3, HV 750) in 100 mM sodium phosphate pH 7.4 buffer unless otherwise indicated. Quantum yields were measured relative to 9,10 diphenylanthracene in EtOH.4 Reported quantum efficiencies are the average of at least three independent preparations of the probes.
The extinction coefficient ε relates the absorbance of a compound to its concentration as expressed in Beer's law (A=εbc where A is absorbance, b is pathlength, and c is concentration). Extinction coefficients were the average of three independent determinations of three different readings of absorbance from the lowest energy transition at three concentrations. The quantum yield of fluorescence is the fraction of absorbed photons that lead to fluorescence; the number of photons fluoresced divided by the number of photons absorbed. To obtain the quantum yields of the synthesized coumarines their efficiency was compared to standard 9,10-diphenylanthracene at 340 nm in three different determinations. The effect of different solvents on the fluorescence of the compounds was also tested. The compounds were dissolved in methanol, chloroform and toluene and their emissions spectrum was taken.

Chemical stability = details: in words
[2] = Solubility in aqueous solution; format: physicochemical; details: in words
[3] = Fluorescence switch / apparent fluorescence increase, product versus substrate; format: physicochemical
Description: Apparent fluorescence increase was calculated by comparing the slopes (arbitrary fluorescence units/μM) of standard curves of chemically synthesized product and substrate concentration versus fluorescence intensity. Calculation of the apparent fluorescence increase is shown below for probe 9, which has a 21000% apparent fluorescence increase in emission intensity at λem=524 nm. The constants fP and fS were calculated from the slope of a line of fluorescence intensity versus concentration of chemically synthesized product indole 10 and substrate 9, respectively. These slopes were obtained from calibration curves of at least five concentrations of 9 and 10 in phosphate buffer (pH 7.4). The preparations of the compounds in mitochondrial assay buffer have negligible effects on fS and fP.

[4] = Table 3, in water, relative to 9,10-diphenyl anthracene (excited at 365 nm)
[5] = Table 3 hydroxyl-amine probes, in water
[6] = Table 4, in water, relative to coumarin 6 (excited at 420 nm)
[7] = Table 4 indoles, in water, first λmax column
[8] = Table 4 indoles, in water, second λmax
[9] = Table 5, 100 mM sodium phosphate pH 7.4
[10] = Table 5, 100 mM sodium phosphate pH 7.4, longest wavelength transition
[11] = Table 5, relative to 9,10-diphenyl anthracene (excited at 340 nm)
[12] = Table 4, in water, relative to 9,10-diphenyl anthracene (excited at 340 nm)
[13] = Table 5, relative to 9,10-diphenyl anthracene (excited at 365 nm)
[14] = Table 4, in water, relative to 9,10-diphenyl anthracene (excited at 365 nm)

NCCc1ccc2oc(=O)ccc2c1N [V]
ε (M^−1cm^−1) ([1]; Table 2 diamines, in water): 6,000 ± 100 M^−1cm^−1 | λmax (nm) ([1]; Table 2 diamines, in water): 299 nm

CCN(CC)c1ccc2c(C)c(-c3ccc(N)c(CCN)c3)c(=O)oc2c1 [I]
ε (M^−1cm^−1) ([1]; Table 2 diamines, in water): 13,000 ± 1,000 M^−1cm^−1 | λcm (nm) ([1]; Table 2 diamines, in water): 484 nm | λmax (nm) ([1]; Table 2 diamines, in water): 390 nm

CCN(CC)c1ccc2c(C)c(-c3ccc(N)c(CCO)c3)c(=O)oc2c1 [VI]
Φ [1, 4]: 0.014 | ε (M^−1cm^−1) [1, 5]: 15,000 ± 1,000 M^−1cm^−1 | λcm (nm) [1, 5]: 499 nm | λmax (nm) [1, 5]: 394 nm

CCN(CC)c1ccc2cc(-c3ccc4[nH]ccc4c3)c(=O)oc2c1 [XII]
Φ [1, 6]: 0.08 ± 0.02^c | ε (M^−1cm^−1) ([1]; Table 4 indoles, in water): 17,000 ± 1,000 M^−1cm^−1 | λmax (nm) [1, 7]: 401 nm | λmax (nm) [1, 8]: 477 nm

Cc1c(-c2ccc(N)c(CCO)c2)c(=O)oc2c3c4c(cc12)CCCN4CCC3 [VII]
Φ [1, 4]: 0.0040 | ε (M^−1cm^−1) [1, 5]: 21,000 ± 2,000 M^−1cm^−1 | λcm (nm) [1, 5]: 499 nm | λmax (nm) [1, 5]: 391 nm

O=c1ccc2c(ccc3[nH]ccc32)o1 [XIX]
Φ [1, 6]: 0.05 ± 0.02^c | ε (M^−1cm^−1) ([1]; Table 4 indoles, in water): 9,400 ± 900 M^−1cm^−1 | λmax (nm) [1, 7]: 355 nm | λmax (nm) [1, 8]: 517 nm

7-[4-Amino-3-(2-hydroxy-ethyl)-phenyl]-4-methyl-chromen-2-one [Probe 3]
λcm (nm) [1, 9]: 492 nm | λmax (nm) [1, 10]: 350 nm | ΦH2O [1, 11]: 0.010 ± 0.003^a

O=c1ccc2cc3[nH]ccc3cc2o1 [XX]
Φ [1, 12]: 0.0082 ± 0.0004^a | ε (M^−1cm^−1) ([1]; Table 4 indoles, in water): 17,000 ± 2,000 M^−1cm^−1 | λmax (nm) [1, 7]: 335 nm | λmax (nm) [1, 8]: 524 nm

CCN(CC)c1ccc2c(C)c(-c3ccc(N)c(CCO)c3)c(=O)oc2c1 [Probe 16, 3-[4-Amino-3-(2-hydroxy-ethyl)-phenyl]-7-diethylamino-4-methyl-chromen-2-one]
fluorescence, in words [1]: much less fluorescent than Probe 17 | chemical stability (Chemical stability): chemically and photo-physically stable | solubility in aqueous solution [2]: reasonably soluble

Nc1c(CCO)ccc2oc(=O)ccc12 [Probe 81, 5-Amino-6-(2-hydroxy-ethyl)-chromen-2-one]
fluorescence, in words [1]: very weakly fluorescent; also recorded: only weak fluorescence

Cc1c(-c2ccc(N)c(CCO)c2)c(=O)oc2c3c4c(cc12)CCCN4CCC3 [Probe 23, 9-[4-Amino-3-(2-hydroxy-ethyl)-phenyl]-8-methyl-2,3,5,6-tetrahydro-1H, 4H-11-oxa-3a-aza-benzo[de]anthracen-10-one]
fluorescence emission intensity increase, indole/pyrrolocoumarin versus aniline/aminocoumarin [3]: 6 fold

Cc1cc(=O)oc2c1ccc1[nH]ccc12 [Probe 36, 4-Methyl-7H-pyrano[2,3-e]indol-2-one]
fluorescence, in words [1]: very weak fluorescence emission intensity; also recorded: very weakly fluorescent

O=c1ccc2cc3[nH]ccc3cc2o1 [Probe 59, 1H-Pyrano[2,3-f]indol-6-one]
fluorescence, in words [1]: quite fluorescent | fluorescence emission intensity increase, indole/pyrrolocoumarin versus aniline/aminocoumarin [3]: around 2000 fold

Cc1cc(=O)oc2ccc3[nH]ccc3c12 [Probe 52, 9-Methyl-3H-pyrano[3,2-e]indol-7-one]
fluorescence, in words [1]: quite fluorescent

Nc1cc2ccc(=O)oc2cc1CCO [VIII]
λmax (nm) [1, 5]: 354 nm

[4-(4-Methyl-2-oxo-2H-chromen-7-yl)-phenyl]-carbamic acid tert-butyl ester [Probe 2]
ε (M^−1cm^−1) [1, 9]: 17,000 ± 1,000 M^−1cm^−1 | λcm (nm) [1, 9]: 477 nm | λmax (nm) [1, 10]: 401 nm | ΦEtOH [1, 13]: 0.59 ± 0.09^b | ΦH2O [1, 13]: 0.08 ± 0.01^b

O=c1oc2c3c4c(cc2cc1-c1ccc2[nH]ccc2c1)CCCN4CCC3 [XIV]
Φ [1, 14]: 0.050 ± 0.005^b | λmax (nm) [1, 7]: 388 nm | λmax (nm) [1, 8]: 501 nm

Cc1cc(=O)oc2ccc3[nH]ccc3c12 [XVIII]
Φ [1, 12]: 0.18 ± 0.05^a | ε (M^−1cm^−1) ([1]; Table 4 indoles, in water): 11,600 ± 800 M^−1cm^−1 | λmax (nm) [1, 7]: 349 nm | λmax (nm) [1, 8]: 492 nm

7-(4-Amino-phenyl)-4-methyl-chromen-2-one [Probe 1]
ε (M^−1cm^−1) [1, 9]: 13,000 ± 1,000 M^−1cm^−1 | λcm (nm) [1, 9]: 484 nm | λmax (nm) [1, 10]: 390 nm | ΦEtOH [1, 13]: 0.0287 ± 0.0006^b | ΦH2O [1, 13]: 0.00112 ± 0.00008^b

CC12CC(=O)Oc3ccc(N)c(c31)CCN2 (centres unmarked) [Probe 125, 7-Amino-3a-methyl-3a,4,5,6-tetrahydro-3H-1-oxa-4-aza-phenalen-2-one]
fluorescence, in words [1]: non-fluorescent

Cc1cc(=O)oc2ccc(N)c(CCO)c12 [Probe 57, 6-Amino-5-(2-hydroxy-ethyl)-4-methyl-chromen-2-one]
fluorescence, in words [1]: essentially non-fluorescent; also recorded: very weakly fluorescent | chemical stability (Chemical stability): chemically and photo-physically stable | solubility in aqueous solution [2]: very soluble

Cc1cc(=O)oc2cc(-c3ccc4[nH]ccc4c3)ccc12 [XI]
Φ [1, 12]: 0.00329 ± 0.00008^a | λmax (nm) [1, 7]: 339 nm | λmax (nm) [1, 8]: 445 nm

Nc1ccc2oc(=O)ccc2c1CCO [IX]
Φ [1, 4]: 0.0017 | ε (M^−1cm^−1) [1, 5]: 3,400 ± 500 M^−1cm^−1 | λmax (nm) [1, 5]: 357 nm

NCCc1cc2oc(=O)ccc2cc1N [Probe 116, 6-Amino-7-(2-amino-ethyl)-chromen-2-one]
fluorescence, in words [1]: very weakly fluorescent | chemical stability (Chemical stability): perfectly stable

Cc1cc(=O)oc2ccc3cc[nH]c3c12 [Probe 55, 9-Methyl-1H-pyrano[2,3-g]indol-7-one]
fluorescence, in words [1]: quite fluorescent

Cc1cc(=O)oc2ccc(N)c(CCN)c12 [IV]
Φ ([1]; Table 2, in water, relative to 9,10-diphenyl anthracene (excited at 340 nm)): 0.010

Cc1cc(=O)oc2ccc3cc[nH]c3c12 [XVII]
Φ [1, 12]: 0.0531 ± 0.0001^a | ε (M^−1cm^−1) ([1]; Table 4 indoles, in water): 14,000 ± 3,000 M^−1cm^−1 | λmax (nm) [1, 7]: 330 nm | λmax (nm) [1, 8]: 488 nm

O=c1oc2c3c4c(cc2c(C(F)(F)F)c1-c1ccc2[nH]ccc2c1)CCCN4CCC3 [Probe 25, 9-(1H-Indol-5-yl)-8-trifluoromethyl-2,3,5,6-tetrahydro-1H, 4H-11-oxa-3a-aza-benzo[de]anthracen-10-one]
fluorescence quantum yield, in words [1]: rather low quantum yield | fluorescence, in words [1]: distinct red-shift emission

CCN(CC)c1ccc2c(C)c(-c3ccc4cc[nH]c4c3)c(=O)oc2c1 [XIII]
Φ [1, 14]: 0.0103 ± 0.0003^b | ε (M^−1cm^−1) ([1]; Table 4 indoles, in water): 20,000 ± 3,000 M^−1cm^−1 | λmax (nm) [1, 7]: 399 nm | λmax (nm) [1, 8]: 484 nm

O=c1oc2c3c4c(cc2c(C(F)(F)F)c1-c1ccc2[nH]ccc2c1)CCCN4CCC3 [XV]
λmax (nm) [1, 7]: 439 nm | λmax (nm) [1, 8]: 557 nm

CCN(CC)c1ccc2c(C)c(-c3ccc(N)c(CCN)c3)c(=O)oc2c1 [Probe 114, 3-[4-Amino-3-(2-amino-ethyl)-phenyl]-7-diethylamino-4-methyl-chromen-2-one]
chemical stability (Chemical stability): desired chemical stability | solubility in aqueous solution [2]: water solubility

7-(1H-Indol-5-yl)-4-methyl-chromen-2-one [Probe 4]
ε (M^−1cm^−1) [1, 9]: 11,600 ± 800 M^−1cm^−1 | λmax (nm) [1, 10]: 349 nm | ΦEtOH [1, 11]: 0.36 ± 0.07^a | ΦH2O [1, 11]: 0.13 ± 0.02^a

Nc1cc2ccc(=O)oc2cc1CCO [Probe 58, 6-Amino-7-(2-hydroxy-ethyl)-chromen-2-one]
fluorescence, in words [1]: basically non-fluorescent; also recorded: very weakly fluorescent

Cc1c(-c2ccc3[nH]ccc3c2)c(=O)oc2c3c4c(cc12)CCCN4CCC3 [Probe 24, 9-(1H-Indol-5-yl)-8-methyl-2,3,5,6-tetrahydro-1H, 4H-11-oxa-3a-aza-benzo[de]anthracen-10-one]
emission wavelength [1]: 495 nm

Cc1cc(=O)oc2ccc(N)c(CCN)c12 [Probe 115, 6-Amino-5-(2-amino-ethyl)-4-methyl-chromen-2-one]
chemical stability (Chemical stability): stable when protonated; also recorded: very unstable once deprotonated, or even under neutral condition

Nc1c(CCO)ccc2oc(=O)ccc12 [X]
ε (M^−1cm^−1) [1, 5]: 13,000 ± 3,000 M^−1cm^−1 | λmax (nm) [1, 5]: 298 nm
